# Data published in patent publication US8575156B2, “Cyclic inhibitors of 11β-hydroxysteroid dehydrogenase 1” (Vitae Pharmaceuticals, Inc., priority 2007, dated 2013).
# Read-outs that look alike come from different tables or passages of the source.
# Assays:
# 11β-HSD1 [1] = target: T1, 11β-HSD1 (Homo sapiens, UniProt P28845); conditions: for IC50: read-out: IC50 Range; for Average % inhibition at 111.1 nM: 111.1 nM compound, 0.1111 µM
# 11β-HSD1 [2] = target: T1, 11β-HSD1; test: biochemical; conditions: for IC50: IC50 Range, Biological Test Example 1, microsomes from CHO cells overexpressing human 11β-HSD1; for inhibition at 0.1 µM: read-out: Average % inhibition at 100 nM, Biological Test Example 1
# [3] = Biological Test Example 1, 100 nM compound, 0.1 µM
# [4] = Biological Test Example 1, microsomes from CHO cells overexpressing human 11β-HSD1
# [5] = Biological Test Example 1, 100 nM, 0.1 µM
# [6] = read-out: Average % inhibition at 111.1 nM, Biological Test Example 1, 111.1 nM compound
# T1 sequence (P28845 whole entry): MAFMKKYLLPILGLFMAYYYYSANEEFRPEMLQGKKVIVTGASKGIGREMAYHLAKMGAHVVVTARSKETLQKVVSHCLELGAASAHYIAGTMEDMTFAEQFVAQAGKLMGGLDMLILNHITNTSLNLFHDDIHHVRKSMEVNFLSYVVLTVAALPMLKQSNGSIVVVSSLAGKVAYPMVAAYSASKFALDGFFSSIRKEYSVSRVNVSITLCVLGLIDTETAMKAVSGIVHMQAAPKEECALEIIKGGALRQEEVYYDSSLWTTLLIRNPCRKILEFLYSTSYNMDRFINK
compound,measurement,setting,value
"CC(O)C[C@]1(c2ccc(F)cc2)CCN([C@@H](C)c2ccc(Cl)cc2)C(=O)O1 (single isomer, unassigned) [EXAMPLE 203 Isomer 2]",Average % inhibition at 100 nM,11β-HSD1 [1]; [3],93.8%
same,IC50,11β-HSD1 [1]; [4],< 100 nM
"CC(C)C1(CCCO)CCN([C@@H](C)c2ccc(-c3ccc(F)cc3F)cc2)C(=O)O1 (single isomer, unassigned) [EXAMPLE 212 Isomer 2]",Average % inhibition at 100 nM,11β-HSD1 [1]; [3],82.6%
same,IC50,11β-HSD1 [1]; [4],< 100 nM
"C[C@@H](c1ccc(-c2ccc(F)cc2)cc1)N1CC[C@](CC(O)CN(C)S(C)(=O)=O)(c2ccc(F)cc2)OC1=O (single isomer, unassigned) [EXAMPLE 278 Isomer 2]",Average % inhibition at 100 nM,11β-HSD1 [1]; [3],65.5%
same,IC50,11β-HSD1 [1]; [4],< 100 nM
"(S)-6-(3-hydroxypropyl)-3-((S)-1-(4-methoxyphenyl)ethyl)-6-phenyl-1,3-oxazinan-2-one [EXAMPLE 282 Isomer 2]",Average % inhibition at 100 nM,11β-HSD1 [1],77.8%
same,IC50,11β-HSD1 [1],< 100 nM
"C=CCC1(c2ccc(F)cc2)CCN([C@@H](C)c2ccc(Cl)cc2)C(=O)O1 (single isomer, unassigned) [EXAMPLE 196 Isomer 2]",Average % inhibition at 100 nM,11β-HSD1 [1]; [3],98.9%
same,IC50,11β-HSD1 [1]; [4],< 100 nM
"C[C@@H](c1ccc(Br)cc1)N1CCC(CCO)(c2ccc(F)cc2F)OC1=O (single isomer, unassigned) [EXAMPLE 365 Isomer 2]",Average % inhibition at 100 nM,11β-HSD1 [1]; [5],61.1%
same,IC50,11β-HSD1 [1]; [4],< 100 nM
"C[C@@H](c1ccc(-c2ccc(F)cc2F)cc1)N1CCC(CCO)(c2cccs2)OC1=O (single isomer, unassigned) [EXAMPLE 233 Isomer 2]",Average % inhibition at 100 nM,11β-HSD1 [1]; [3],64.1%
same,IC50,11β-HSD1 [1]; [4],< 100 nM
"CC(O)C[C@@]1(c2cccs2)CCN([C@@H](C)c2ccc(-c3ccc(F)cc3)cc2)C(=O)O1 (single isomer, unassigned) [EXAMPLE 167 Isomer 2]",Average % inhibition at 111.1 nM,11β-HSD1 [1]; Biological Test Example 1,77.2%
same,IC50,11β-HSD1 [1]; [4],< 100 nM
"C[C@@H](c1ccc(-c2ccc(F)cc2F)cc1)N1CCC(CCO)(C(C)(C)C)OC1=O (single isomer, unassigned) [EXAMPLE 336 Isomer 2]",Average % inhibition at 100 nM,11β-HSD1 [1]; [5],94.6%
same,IC50,11β-HSD1 [1]; [4],< 100 nM
"C[C@@H](c1ccccc1)N1CCC(C)(c2ccccc2)OC1=O (single isomer, unassigned) [EXAMPLE 82 Isomer 2]",Average % inhibition at 111.1 nM,11β-HSD1 [1]; Biological Test Example 1,89.2%
same,IC50,11β-HSD1 [1]; [4],< 100 nM
"CC(C[C@]1(c2ccc(F)cc2)CCN([C@@H](C)c2ccc(Br)cc2)C(=O)O1)C(N)=O (single isomer, unassigned) [EXAMPLE 523 Isomer 2]",Average % inhibition at 100 nM,11β-HSD1 [1]; [5],85.4%
same,IC50,11β-HSD1 [1]; [4],< 100 nM
"CC(O)CC[C@]1(c2ccc(F)cc2)CCN([C@@H](C)c2ccc(F)cc2)C(=O)O1 (single isomer, unassigned) [EXAMPLE 411 Isomer 2]",Average % inhibition at 100 nM,11β-HSD1 [1]; [5],93.1%
same,IC50,11β-HSD1 [1]; [4],< 100 nM
"C[C@@H](c1ccc(-c2ccc(F)cc2)cc1)N1CC[C@](CC(O)CO)(c2ccccc2)OC1=O (single isomer, unassigned) [EXAMPLE 168 Isomer 2]",Average % inhibition at 100 nM,11β-HSD1 [1]; [3],95.6%
same,IC50,11β-HSD1 [1]; [4],< 100 nM
"C[C@@H](c1ccc(Br)cc1)N1CCC(CCCO)(c2ccc(F)cc2)OC1=O (single isomer, unassigned) [EXAMPLE 227 Isomer 2]",IC50,11β-HSD1 [1]; [4],< 100 nM
"CC[C@@H](c1ccc(Br)cc1)N1CC[C@](CC(O)CO)(c2ccccc2)OC1=O (single isomer, unassigned) [EXAMPLE 239 Isomer 2]",Average % inhibition at 100 nM,11β-HSD1 [1]; [3],89.5%
same,IC50,11β-HSD1 [1]; [4],< 100 nM
"CC(O)C[C@]1(c2ccc(F)cc2)CCN([C@@H](C)c2ccc(-c3ccc(F)cc3F)cc2)C(=O)O1 (single isomer, unassigned) [EXAMPLE 137 Isomer 2]",IC50,11β-HSD1 [1]; [4],< 100 nM
"C=CCCC1(c2ccc(F)cc2)CCN([C@@H](C)c2ccc(OC(F)F)cc2)C(=O)O1 (single isomer, unassigned) [EXAMPLE 323 Isomer 2]",Average % inhibition at 100 nM,11β-HSD1 [1]; 0.1 µM,100.9%
same,IC50,11β-HSD1 [1]; [4],< 100 nM
"CC(CO)C[C@]1(c2ccc(F)cc2)CCN([C@@H](C)c2ccc(Br)cc2)C(=O)O1 (single isomer, unassigned) [EXAMPLE 577 Isomer 2]",Average % inhibition at 100 nM,11β-HSD1 [1]; [5],94.7%
same,IC50,11β-HSD1 [1]; [4],< 100 nM
"CC(O)C[C@]1(c2ccc(F)cc2)CCN([C@@H](C)c2ccc(Br)cc2)C(=O)O1 (single isomer, unassigned) [EXAMPLE 371 Isomer 2]",Average % inhibition at 100 nM,11β-HSD1 [1]; [5],97.4%
same,IC50,11β-HSD1 [1]; [4],< 100 nM
"CC(O)CC[C@]1(c2ccc(F)cc2)CCN([C@@H](C)c2ccc(Cl)cc2)C(=O)O1 (single isomer, unassigned) [EXAMPLE 383 Isomer 2]",Average % inhibition at 100 nM,11β-HSD1 [1]; [5],95.3%
same,IC50,11β-HSD1 [1]; [4],< 100 nM
"CC(O)C[C@]1(c2ccc(F)cc2)CCN([C@@H](C)c2ccc(C(F)(F)F)cc2)C(=O)O1 (single isomer, unassigned) [EXAMPLE 388 Isomer 2]",Average % inhibition at 100 nM,11β-HSD1 [1]; [5],94.7%
same,IC50,11β-HSD1 [1]; [4],< 100 nM
"3-((S)-1-(2′,4′-difluorobiphenyl-4-yl)ethyl)-6-(2-hydroxyethyl)-6-isopropyl-1,3-oxazinan-2-one [EXAMPLE 207 Isomer 2]",Average % inhibition at 100 nM,11β-HSD1 [1]; 0.1 µM,89.3%
same,IC50,11β-HSD1 [1],< 100 nM
"C=CCC1(c2ccc(F)cc2)CCN([C@@H](C)c2ccc(C)cc2)C(=O)O1 (single isomer, unassigned) [EXAMPLE 189 Isomer 2]",Average % inhibition at 100 nM,11β-HSD1 [1]; [3],90.1%
same,IC50,11β-HSD1 [1]; [4],< 100 nM
"CC1(c2cccc(Cl)c2)CCN(c2cccc(N3CCCCC3)n2)C(=O)O1 (centres unmarked) [EXAMPLE 53, 6-(3-chlorophenyl)-6-methyl-3-(6-(piperidin-1-yl)pyridin-2-yl)-1,3-oxazinan-2-one]",IC50,11β-HSD1 [2],< 100 nM
same,inhibition at 0.1111 µM,11β-HSD1 [2]; read-out: Average % inhibition at 111.1 nM,57.1%
"C[C@@H](c1ccc(-c2ccc(F)cc2F)cc1)N1CC[C@](CCC(C)(C)O)(c2ccccc2)OC1=O [EXAMPLE 260, (R)-3-((S)-1-(2′,4′-difluorobiphenyl-4-yl)ethyl)-6-(3-hydroxy-3-methylbutyl)-6-phenyl-1,3-oxazinan-2-one]",IC50,11β-HSD1 [2],< 100 nM
same,inhibition at 0.1 µM,11β-HSD1 [2]; 100 nM compound,94.1%
"Cc1ccc([C@H](C)N2CC[C@](CC(C)(C)O)(c3ccccc3)OC2=O)cc1 [EXAMPLE 422, (S)-6-(2-hydroxy-2-methylpropyl)-6-phenyl-3-((S)-1-p-tolylethyl)-1,3-oxazinan-2-one]",IC50,11β-HSD1 [2],< 100 nM
same,inhibition at 0.1 µM,11β-HSD1 [2]; 100 nM,100%
"C=CCC1(c2ccc(F)cc2)CCN([C@@H](C)c2ccccc2)C(=O)O1 (stereo partly drawn) [EXAMPLE 95, 6-allyl-6-(4-fluorophenyl)-3-((S)-1-phenylethyl)-1,3-oxazinan-2-one]",IC50,11β-HSD1 [2],< 100 nM
same,inhibition at 0.1111 µM,11β-HSD1 [2]; [6],97.3%
"Cc1cc(-c2ccc([C@H](C)N3CC[C@](CCCO)(c4ccc(F)cc4)OC3=O)cc2)ccn1 [EXAMPLE 311, (R)-6-(4-fluorophenyl)-6-(3-hydroxypropyl)-3-((S)-1-(4-(2-methylpyridin-4-yl)phenyl)ethyl)-1,3-oxazinan-2-one]",IC50,11β-HSD1 [2],< 100 nM
same,inhibition at 0.1 µM,11β-HSD1 [2]; 100 nM,96.7%
"C=CCC1(c2ccc(F)cc2)CCN([C@@H](C)c2ccc(OC)cc2)C(=O)O1 (single isomer, unassigned) [EXAMPLE 193 Isomer 1]",IC50,11β-HSD1 [2],< 100 nM
"COCCNC(=O)c1cccc(-c2cccc(N3CCC(C)(c4ccccc4)OC3=O)c2)c1 (centres unmarked) [EXAMPLE 18, N-(2-methoxyethyl)-3′-(6-methyl-2-oxo-6-phenyl-1,3-oxazinan-3-yl)biphenyl-3-carboxamide]",IC50,11β-HSD1 [2],100 to 1000 nM
same,inhibition at 0.1111 µM,11β-HSD1 [2]; [6],7.2%
"C[C@@H](c1ccc(Br)cc1)N1CC[C@](CCC(=O)O)(c2ccc(F)cc2)OC1=O [EXAMPLE 526, 3-((R)-3-((S)-1-(4-bromophenyl)ethyl)-6-(4-fluorophenyl)-2-oxo-1,3-oxazinan-6-yl)propanoic acid]",IC50,11β-HSD1 [2],< 100 nM
same,inhibition at 0.1 µM,11β-HSD1 [2]; 100 nM,54.6%
